# pEC50, pIC50: −log10 of the molar value.
# Tests used:
# [1] = test system: Trypanosoma brucei rhodesiense; test: MMV: Inhibition of Trypanosoma brucei rhodesiense (STIB 900) (HAT in vitro).; format: functional, organism-based
# Trypanosoma cruzi = test: MMV: Inhibition of Trypanosoma cruzi (Tulahuen C4 LacZ) (Chagas in vitro).; format: functional, organism-based
# Leishmania infantum = test: MMV: Inhibition of Leishmania infantum (MHOM/MA/BE/67) in vitro.; format: functional, organism-based
# [2] = test system: Trypanosoma brucei brucei; test: MMV: Inhibition of Trypanosoma brucei brucei (Squib 427) (HAT in vitro).; format: functional, organism-based
# Plasmodium falciparum [3] = test: MMV: Inhibition of Plasmodium falciparum 3D7 (EC50).; format: functional, organism-based
# [4] = MMV: Cytotoxicity against human fibroblasts (MRC-5) cells.; conditions: MRC-5 cells (human fibroblasts)
# Plasmodium falciparum [5] = test: MMV: Inhibition of Plasmodium falciparum 3D7 at 2uM compound concentration.; format: functional
# Plasmodium falciparum [6] = test: MMV: Inhibition of Plasmodium falciparum K1 (EC50).; format: functional, organism-based
# Plasmodium falciparum [7] = test: MMV: Inhibition of Plasmodium falciparum 3D7 at 5uM compound concentration.; format: functional
Compound,pIC50 [1],pIC50 (Trypanosoma cruzi),pIC50 (Leishmania infantum),pIC50 [2],pEC50 (Plasmodium falciparum [3]),pIC50 [4],inhibition at 2 µM (Plasmodium falciparum [5]) [%],pEC50 (Plasmodium falciparum [6]),inhibition at 5 µM (Plasmodium falciparum [7]) [%]
CCCCc1c(C)nc2c(OC)cccc2c1O,< 4.49,< 4.49,< 4.49,< 4.49,5.40,< 4.49,92,,
CN(C)c1ccc(N2C(N)=NC(N)=NC2(C)C)cc1,< 4.49,< 4.49,< 4.49,< 4.49,,< 4.49,95,,
CCOc1ccc(N2C(N)=NC(N)=NC2(C)C)cc1,< 4.49,< 4.49,< 4.49,< 4.49,,4.68,92,,
COc1ccc2sc(N(Cc3cccnc3)C(=O)c3ccc(C#N)cc3)nc2c1,4.79,5.26,< 4.49,< 4.49,,< 4.49,89,,
Cc1ccc(Nc2nc(N)c3ccccc3n2)cc1Cl,5.19,5.42,5.40,5.48,5.40,4.81,96,,
CCOc1ccc2nc(C)cc(Nc3ccc(Br)cc3)c2c1,5.48,5.37,5.39,5.44,6.32,5.50,96,,
Cc1ccc2c(C)nc(Nc3nc(C)cc(-c4ccccc4)n3)nc2c1,4.56,4.68,< 4.49,< 4.49,5.40,< 4.49,73,,
c1ccc(CNc2nc(Nc3ccccc3)nc3ccccc23)cc1,5.52,5.83,6.15,5.47,6.11,5.47,95,,
CCc1ccc(Nc2cc(C)nc3nc(C)nn23)cc1,< 4.49,< 4.49,< 4.49,< 4.49,5.40,< 4.49,81,,
OCCNc1nc(Nc2ccc(Cl)c(Cl)c2)nc2ccccc12,5.69,5.59,5.52,5.48,6.23,5.30,94,,
COc1ccc2nc(C)cc(Nc3ccc(Cl)cc3)c2c1,5.46,5.44,5.39,5.45,5.70,< 4.49,95,,
Cc1cccc(Nc2nc(N)c3ccccc3n2)c1,4.94,4.94,5.36,4.75,6.40,< 4.49,97,,
COc1ccc(-c2nc(NC(=O)CS(=O)(=O)c3ccc(F)cc3)sc2C)cc1,4.79,4.78,< 4.49,4.80,6.35,< 4.49,,5.89,97
O=C(Nc1cccc(C2=NCCN2)c1)Nc1cccc(C2=NCCN2)c1 [IMIDOCARB],6.58,< 4.49,< 4.49,4.71,6.00,< 4.49,,5.86,83
CC1CCCCN1CCCNC(=O)c1ccc2c(c1)sc1nc(-c3ccc(F)cc3)cn12 (stereo not drawn),5.92,5.38,5.97,5.42,6.19,4.98,,5.95,98
COc1cc(-c2nc(-c3ccc(Sc4ccccc4)cc3)c(-c3ccccc3)[nH]2)cc(OC)c1O,5.44,4.95,4.79,5.47,6.46,5.07,,6.01,97
COc1cc(SC)ccc1C(=O)N1CCCC(C)C1 (stereo not drawn),< 4.49,< 4.49,< 4.49,< 4.49,5.40,< 4.49,45,,
CN(C)c1ccc(C(O)(c2ccc(N(C)C)cc2)c2ccc(N(C)C)cc2)cc1 [METHYLROSANILINE],> 6.90,> 6.90,> 6.90,> 6.90,6.59,6.45,,6.30,96
Brc1ccc(Nc2nc3ccccc3nc2Nc2ccc(Br)cc2)cc1,5.88,5.45,5.39,5.39,5.97,5.23,,6.30,98

Compound,pIC50 [1],pIC50 (Trypanosoma cruzi),pIC50 (Leishmania infantum),pIC50 [2],pEC50 (Plasmodium falciparum [3]),pIC50 [4],inhibition at 2 µM (Plasmodium falciparum [5]) [%],pEC50 (Plasmodium falciparum [6]),inhibition at 5 µM (Plasmodium falciparum [7]) [%]
CN(C)CCNc1cc(-c2ccccc2)nc2ccccc12,5.39,5.14,5.20,5.41,5.40,4.60,92,,
COc1ccc(OC)c(C2C3=C(CC(C)(C)CC3=O)N(c3ccc(Cl)c(Cl)c3)C3=C2C(=O)CC(C)(C)C3)c1,4.79,< 4.49,< 4.49,4.78,6.04,< 4.49,,5.97,90
CC(C)CCNCC(O)Cn1c2ccccc2c2ccccc21 (stereo not drawn),6.00,5.17,5.40,6.03,6.33,4.79,,6.68,97
Oc1c(C(Nc2ccccn2)c2cccc(Oc3ccccc3)c2)ccc2cccnc12 (stereo not drawn),6.01,5.98,6.00,5.99,6.00,5.41,,5.97,97
Cc1cc(C)c2c(c1)OCN(Cc1ccccc1Cl)C2,4.79,< 4.49,4.79,4.78,6.57,< 4.49,,7.00,98
COc1cccc(C(=O)NC(c2ccc(C)cc2)c2cc(Cl)c3cccnc3c2O)c1 (stereo not drawn),5.39,5.42,< 4.49,5.46,6.41,< 4.49,,6.28,97
CSc1ccccc1C(=O)Nc1nc(-c2ccccn2)cs1,6.56,6.60,6.47,6.03,6.69,5.56,,6.25,98
CCOC(=O)C1=CN(C)C=C(C(=O)OCC)C1c1cc(Br)c(OCC)c(OC)c1,4.86,4.87,< 4.49,4.81,6.29,< 4.49,,6.02,97
CCOc1ccc(Nc2ccnc3cc(Cl)ccc23)cc1,< 4.49,< 4.49,< 4.49,< 4.49,5.40,< 4.49,94,,
COc1cccc(Nc2nc(N)c3ccccc3n2)c1,4.92,4.80,4.92,5.04,5.40,< 4.49,94,,
CCOC(=O)c1cnc2c(C)cccc2c1Nc1ccc(C(C)=O)cc1,< 4.49,< 4.49,< 4.49,< 4.49,6.50,< 4.49,,6.15,94
COc1cc(OC)c(N(C)C(=O)c2cc3c(s2)-c2ccccc2S(=O)(=O)C3)cc1Cl,5.36,4.80,4.67,4.79,7.11,< 4.49,,7.03,100
CCOC(=O)c1cn(CC)c2cc(N3CCCCC3)c(F)cc2c1=O,< 4.49,< 4.49,< 4.49,< 4.49,6.92,< 4.49,,6.59,100
Cc1cc(Nc2cccc(F)c2)nc(NCc2ccccc2)n1,5.39,6.04,5.59,5.12,,< 4.49,97,,
COc1cccc(C=Cc2nc(=O)c3ccccc3o2)c1OC,4.76,< 4.49,< 4.49,< 4.49,7.62,< 4.49,,7.44,96
O=C1c2ccccc2-c2nnc(-c3ccc(Br)cc3)cc21,< 4.49,< 4.49,< 4.49,< 4.49,5.97,< 4.49,,6.10,99
CCCCC(O)(c1ccc(Cl)cc1)C(CN1CCOCC1)c1ccc(Cl)cc1 (stereo not drawn),5.36,4.84,4.99,5.41,5.86,< 4.49,,5.82,98
COc1cc(C(=O)ON=C(N)Cc2cccc3ccccc23)cc(OC)c1OC,5.94,5.58,< 4.49,5.39,6.11,5.25,,6.27,99
Cc1ccc(N2C3c4ccccc4N(S(=O)(=O)c4ccc(C)cc4)C2c2ccccc2N3S(=O)(=O)c2ccc(C)cc2)cc1,4.78,< 4.49,4.79,< 4.49,7.61,< 4.49,,7.56,97

# Reference: ChEMBL document CHEMBL2028040, “Malaria Box”
